Results reported in PubChem BioAssay (NCI).
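At the GI50, growth is halved. The concentration for full growth arrest is given as TGI.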

Assays:
Test in all cases: growth of human tumour cells (NCI), 384-well format
SW-620 colon = system: SW-620 colon
SF-539 CNS = system: SF-539 CNS
HCT-15 colon = system: HCT-15 colon
HT29 colon = system: HT29 colon
MALME-3M melanoma = system: MALME-3M melanoma
UACC-257 melanoma = system: UACC-257 melanoma
OVCAR-4 ovarian = system: OVCAR-4 ovarian
786-0 renal = system: 786-0 renal
NCI-H460 NSCLC = system: NCI-H460 NSCLC
OVCAR-8 ovarian = system: OVCAR-8 ovarian
RXF 393 renal = system: RXF 393 renal
NCI-H322M lung = system: NCI-H322M lung
BT-549 breast = system: BT-549 breast
PC-3 prostate = system: PC-3 prostate
SNB-19 CNS = system: SNB-19 CNS
SK-MEL-2 melanoma = system: SK-MEL-2 melanoma
U251 glioblastoma = system: U251 glioblastoma
SNB-75 CNS = system: SNB-75 CNS
HOP-92 NSCLC = system: HOP-92 NSCLC
NCI-H226 lung = system: NCI-H226 lung
MOLT-4 leukemia = system: MOLT-4 leukemia
A549 NSCLC = system: A549 NSCLC
HS 578T breast = system: HS 578T breast
MDA-MB-231 breast = system: MDA-MB-231 breast
MDA-MB-435 melanoma = system: MDA-MB-435 melanoma
UACC-62 melanoma = system: UACC-62 melanoma
SR leukemia = system: SR leukemia
NCI-H522 lung = system: NCI-H522 lung
DU-145 prostate = system: DU-145 prostate
ACHN renal = system: ACHN renal
SF-268 CNS = system: SF-268 CNS
CAKI-1 renal = system: CAKI-1 renal
TK-10 renal = system: TK-10 renal
KM12 colon = system: KM12 colon
SF-295 CNS = system: SF-295 CNS
HCT-116 colon = system: HCT-116 colon
COLO 205 colon = system: COLO 205 colon
UO-31 renal = system: UO-31 renal
K-562 leukemia = system: K-562 leukemia
M14 melanoma = system: M14 melanoma
MCF7 breast = system: MCF7 breast
HOP-62 NSCLC = system: HOP-62 NSCLC
MDA-MB-468 breast = system: MDA-MB-468 breast
OVCAR-3 ovarian = system: OVCAR-3 ovarian
OVCAR-5 ovarian = system: OVCAR-5 ovarian
EKVX NSCLC = system: EKVX NSCLC
IGROV1 ovarian = system: IGROV1 ovarian
SK-MEL-28 melanoma = system: SK-MEL-28 melanoma
SN12C renal = system: SN12C renal
T-47D breast = system: T-47D breast
A498 renal = system: A498 renal
HL-60(TB) leukemia = system: HL-60(TB) leukemia
NCI-H23 lung = system: NCI-H23 lung
SK-MEL-5 melanoma = system: SK-MEL-5 melanoma

COc1cc(C(=O)O)ccc1NC(=O)[C@@H]1N[C@@H](CC(C)(C)C)[C@](C#N)(c2ccc(Cl)cc2F)[C@H]1c1cccc(Cl)c1F
GI50 (SW-620 colon): 4.53 µM | TGI (SW-620 colon): 14.2 µM | GI50 (SF-539 CNS): 3.09 µM | TGI (SF-539 CNS): 11.6 µM | GI50 (HCT-15 colon): 3.51 µM | GI50 (HT29 colon): 4.23 µM | TGI (HT29 colon): 13.1 µM | GI50 (MALME-3M melanoma): 0.0869 µM | TGI (MALME-3M melanoma): 11.9 µM | GI50 (UACC-257 melanoma): 0.228 µM | TGI (UACC-257 melanoma): 0.657 µM | GI50 (OVCAR-4 ovarian): 5.83 µM | TGI (OVCAR-4 ovarian): 18.3 µM | GI50 ([…]-0 renal): 3.54 µM | TGI (786-0 renal): 13.7 µM | GI50 (NCI-H460 NSCLC): 4.31 µM | TGI (NCI-H460 NSCLC): 14.5 µM | GI50 (OVCAR-8 ovarian): 4.65 µM | GI50 (RXF 393 renal): 2.59 µM | TGI (RXF 393 renal): 5.85 µM | GI50 (NCI-H322M lung): 10.3 µM | TGI (NCI-H322M lung): 22 µM | GI50 (BT-549 breast): 3.03 µM | TGI (BT-549 breast): 6.21 µM | GI50 (PC-3 prostate): 4.32 µM | TGI (PC-3 prostate): 14.2 µM | GI50 (SNB-19 CNS): 4.3 µM | TGI (SNB-19 CNS): 14.1 µM | GI50 (SK-MEL-2 melanoma): 2.69 µM | TGI (SK-MEL-2 melanoma): 6.28 µM | GI50 (U251 glioblastoma): 3.68 µM | GI50 (SNB-75 CNS): 6.6 µM | TGI (SNB-75 CNS): 18.7 µM | GI50 (HOP-92 NSCLC): 1.94 µM | TGI (HOP-92 NSCLC): 4.35 µM | GI50 (NCI-H226 lung): 0.0202 µM | TGI (NCI-H226 lung): 0.128 µM | GI50 (MOLT-4 leukemia): < 0.01 µM | TGI (MOLT-4 leukemia): 0.0195 µM | GI50 (A549 NSCLC): 0.195 µM | TGI (A549 NSCLC): 4.76 µM | GI50 (HS 578T breast): 3.75 µM | TGI (HS 578T breast): 11.9 µM | GI50 (MDA-MB-231 breast): 3.48 µM | TGI (MDA-MB-231 breast): 12 µM | GI50 (MDA-MB-435 melanoma): 3.71 µM | TGI (MDA-MB-435 melanoma): 12.2 µM | GI50 (UACC-62 melanoma): < 0.01 µM | TGI (UACC-62 melanoma): 1.44 µM | GI50 (SR leukemia): < 0.01 µM | TGI (SR leukemia): 0.0122 µM | GI50 (NCI-H522 lung): 3.74 µM | TGI (NCI-H522 lung): 10.9 µM | GI50 (DU-145 prostate): 5.75 µM | TGI (DU-145 prostate): 17.5 µM | GI50 (ACHN renal): 0.03 µM | TGI (ACHN renal): 1.49 µM | GI50 (SF-268 CNS): 3.87 µM | TGI (SF-268 CNS): 12.5 µM | GI50 (CAKI-1 renal): 0.0193 µM | TGI (CAKI-1 renal): 13.7 µM | GI50 (TK-10 renal): 5.05 µM | TGI (TK-10 renal): 16.6 µM | GI50 (KM12 colon): 0.0634 µM | TGI (KM12 colon): 1.38 µM | GI50 (SF-295 CNS): 3.77 µM | GI50 (HCT-116 colon): 0.0526 µM | TGI (HCT-116 colon): 1.85 µM | GI50 (COLO 205 colon): 5.06 µM | TGI (COLO 205 colon): 18.1 µM | GI50 (UO-31 renal): 0.0758 µM | TGI (UO-31 renal): 0.464 µM | GI50 (K-562 leukemia): 4.19 µM | TGI (K-562 leukemia): 13.9 µM | GI50 (M14 melanoma): 1.98 µM | TGI (M14 melanoma): 11.2 µM | GI50 (MCF7 breast): 0.0339 µM | TGI (MCF7 breast): 1.04 µM | GI50 (HOP-62 NSCLC): 8.06 µM | GI50 (MDA-MB-468 breast): 3.79 µM | GI50 (OVCAR-3 ovarian): 2.35 µM | TGI (OVCAR-3 ovarian): 5.27 µM | GI50 (OVCAR-5 ovarian): 8.12 µM | TGI (OVCAR-5 ovarian): 20.2 µM | GI50 (EKVX NSCLC): 5.88 µM | GI50 (IGROV1 ovarian): 2.63 µM | TGI (IGROV1 ovarian): 13.8 µM | GI50 (SK-MEL-28 melanoma): 2.73 µM | TGI (SK-MEL-28 melanoma): 6.12 µM | GI50 (SN12C renal): 4.7 µM | TGI (SN12C renal): 15.9 µM | GI50 (T-47D breast): 3.16 µM | GI50 (A498 renal): 0.0406 µM | TGI (A498 renal): 4.26 µM | GI50 (HL-60(TB) leukemia): 2.07 µM | TGI (HL-60(TB) leukemia): 3.51 µM | GI50 (NCI-H23 lung): 4.77 µM | GI50 (SK-MEL-5 melanoma): 1.15 µM | TGI (SK-MEL-5 melanoma): 2.44 µM
